Measurements as given in US20220347167A1, “A NEW TREATMENT FOR MEIBOMIAN GLAND DYSFUNCTION” (The Schepens Eye Research Institute, Inc., priority 2019, published 2022).
“Also recorded” adds a separate entry of the source.

Experiments:
[1] = system: HIF1α; assay: HIF1α expression in IHMGECs by western blot; type: cell-based, human; parameters: HIF1α accumulation in IHMGECs, combination of Roxa and low O2: dose or concentration left out as unconfirmed
Method: Authenticated IHMGECs were grown and passaged in keratinocyte serum-free medium (KSFM) with 5 ng/mL epidermal growth factor (EGF) and 50 μg/mL bovine pituitary extract (BPE) (Thermo Fisher Scientific, Waltham, Mass.) under 21% O2 (normoxia) [Liu et al. (2010) Investigative ophthalmology & visual science 51:3993-4005; McDermott et al. (2018) Current eye research 43:1097-1101; Liu et al. (2013) Investigative ophthalmology & visual science 54:2541-2550]. Upon reaching 60% to 70% confluence, culture media were replaced by a 1:1 mixture of Dulbecco's modified Eagle's medium and Ham's F12 (DMEM/F12, Corning Life Sciences, Tewksbury, Mass.), supplemented with 10% fetal bovine serum (FBS, Atlanta Biologicals, Flowery Branch, Ga.) [Sullivan et al. (2014) Investigative ophthalmology & visual science 55:3866-3877; Liu et al. (2014) JAMA ophthalmology 132:226-228]. […] Culture plates of cells in the hypoxic condition were incubated inside hypoxia chambers filled with a premade 1% O2, 5% CO2 and 94% N2 gas mixture (Linde Gas North America, Hammond, Ind.), according to published protocols in Liu et al. (2019) The ocular surface 17(2):310-317 and Wright and Shay (2006) Nat Protoc 1:2088-2090. Following cell medium changes, the chambers were re-flushed with the gas mixture before returning to the incubator. […] Cell culture experiments (n=3 wells/treatment) were repeated at least 3 times.
[…] The cells were lysed in 2× Laemmli sample buffer (Bio-Rad Laboratories, Hercules, Calif.) and sonicated to extract nuclear protein [Andersen et al. (2002) Current biology: CB 12:1-11]. Human hepatocellular carcinoma cell lines (HepG2 cells) (America Type Culture Collection, Manassas, Va.), which express high concentration of HIF1α under CoCl2 stimulation for 4 hours [Yoo et al. (2014) Journal of cellular biochemistry 115:1147-1158], were used as a positive control for HIF1α antibody. The CoCl2 was purchased from Sigma-Aldrich Corp (St. Louis, Mo.). Cell lysates were then evaluated for HIF1α (1:1000, BD Biosciences, San Jose, Calif.) or β-actin (1:10,000, Cell Signaling Technology) expression. […]

[2] = system: IHMGECs; assay: Oil red O (ORO) staining of neutral lipid droplets in IHMGECs; type: cell-based, human
Method: Authenticated IHMGECs were grown and passaged in keratinocyte serum-free medium (KSFM) with 5 ng/mL epidermal growth factor (EGF) and 50 μg/mL bovine pituitary extract (BPE) (Thermo Fisher Scientific, Waltham, Mass.) under 21% O2 (normoxia) [Liu et al. (2010) Investigative ophthalmology & visual science 51:3993-4005; McDermott et al. (2018) Current eye research 43:1097-1101; Liu et al. (2013) Investigative ophthalmology & visual science 54:2541-2550]. Upon reaching 60% to 70% confluence, culture media were replaced by a 1:1 mixture of Dulbecco's modified Eagle's medium and Ham's F12 (DMEM/F12, Corning Life Sciences, Tewksbury, Mass.), supplemented with 10% fetal bovine serum (FBS, Atlanta Biologicals, Flowery Branch, Ga.) [Sullivan et al. (2014) Investigative ophthalmology & visual science 55:3866-3877; Liu et al. (2014) JAMA ophthalmology 132:226-228]. Cells were cultured for 4-10 days under 21% O2 (normoxic) or 1% O2 (hypoxic) conditions. […]
After four days of incubation, cells seeded on chamber slides (Corning, Rochester, N.Y.) were stained with 0.3% Oil red 0 (ORO, Fisher Biotec, Wembley, Wash., Australia) according to the published protocol in Liu et al. (2010) Investigative ophthalmology & visual science 51:3993-4005) and Liu et al. (2014) Toxicology 320:1-5. […] The size of the stained area was quantified using ImageJ [Deutsch et al. (2014) Anal Biochem 445:87-89]. […]

Cc1nc(C(=O)NCC(=O)O)c(O)c2ccc(Oc3ccccc3)cc12 [Roxa, roxadustat]
HIF1α expression in IHMGECs, Roxa compared with low O2 alone ([1]; 21% O2, 6 hours, vs 1% O2 alone): significantly more HIF1α expression than low O2 alone | HIF1α accumulation in IHMGECs, combination of Roxa and low O2 ([1]; 6 hours): greatest accumulation | HIF1α expression in IHMGECs (band intensity normalized to β-actin) ([1]; Roxa (10 μM elsewhere in the source), normoxic 21% O2, 6 hours, vs control): significantly increased | accumulation of neutral lipid droplets in IHMGECs (area of ORO staining) ([2]; Roxa alone, 21% O2, 4 days): significantly increased; also recorded: duplicated the effect of a hypoxic environment | accumulation of neutral lipid droplets in IHMGECs (area of ORO staining), combination of Roxa and 1% O2 ([2]; Roxa in 1% O2, 4 days): significantly increased; also recorded: further increased
